In PubChem BioAssay AID652241 (Broad Institute, 2013):
Inconclusive results are not listed. Calls of active or inactive are those of the source.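 Rule for the calls: active = fitted curve reaches activity 50 in the expected rising direction at or below the top valid tested dose; inconclusive = no clear call, values can overlap the other calls; inactive = activity in the wrong direction, and the rest.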 Square brackets hold non-standard residues; d marks the D form. Peptide text beside a SMILES is read from it. ξ: configuration not given here. Ac5c = NC1(C(=O)O)CCCC1; ξP = O=C(O)C1CCCN1

Biological target: Virion infectivity factor (Human immunodeficiency virus type 1 group M subtype B (isolate BH10)) + Virion infectivity factor (Human immunodeficiency virus type 1 group M subtype B (isolate BRU/LAI)) + Virion infectivity factor (Human immunodeficiency virus type 1 group M subtype B (isolate PCV12)) + Virion infectivity factor (Human immunodeficiency virus type 1 group M subtype B (isolate HXB2)) (UniProt P69720+P69721+P69722+P69723)
Test: Vif multimerization inhibitor potency, dose response, imaging, HEK293T, cherry-picks (AID 652241);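 note: imaged cell signal that rises when Vif self-association is disrupted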
Settings: 24 h

Chain of Virion infectivity factor (Human immunodeficiency virus type 1 group M subtype B (isolate BH10)) + Virion infectivity factor (Human immunodeficiency virus type 1 group M subtype B (isolate BRU/LAI)) + Virion infectivity factor (Human immunodeficiency virus type 1 group M subtype B (isolate PCV12)) + Virion infectivity factor (Human immunodeficiency virus type 1 group M subtype B (isolate HXB2)) (P69720 whole entry, looked up): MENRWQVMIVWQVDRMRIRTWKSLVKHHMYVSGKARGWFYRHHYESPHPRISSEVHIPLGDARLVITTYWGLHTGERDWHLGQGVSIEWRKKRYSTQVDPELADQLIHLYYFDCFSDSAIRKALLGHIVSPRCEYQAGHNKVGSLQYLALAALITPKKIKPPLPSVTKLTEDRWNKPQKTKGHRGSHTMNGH
Chain of Virion infectivity factor (Human immunodeficiency virus type 1 group M subtype B (isolate BH10)) + Virion infectivity factor (Human immunodeficiency virus type 1 group M subtype B (isolate BRU/LAI)) + Virion infectivity factor (Human immunodeficiency virus type 1 group M subtype B (isolate PCV12)) + Virion infectivity factor (Human immunodeficiency virus type 1 group M subtype B (isolate HXB2)) (P69721 whole entry, looked up): as the sequence (P69720 whole entry, looked up) above
Chain of Virion infectivity factor (Human immunodeficiency virus type 1 group M subtype B (isolate BH10)) + Virion infectivity factor (Human immunodeficiency virus type 1 group M subtype B (isolate BRU/LAI)) + Virion infectivity factor (Human immunodeficiency virus type 1 group M subtype B (isolate PCV12)) + Virion infectivity factor (Human immunodeficiency virus type 1 group M subtype B (isolate HXB2)) (P69722 whole entry, looked up): as the sequence (P69720 whole entry, looked up) above
Chain of Virion infectivity factor (Human immunodeficiency virus type 1 group M subtype B (isolate BH10)) + Virion infectivity factor (Human immunodeficiency virus type 1 group M subtype B (isolate BRU/LAI)) + Virion infectivity factor (Human immunodeficiency virus type 1 group M subtype B (isolate PCV12)) + Virion infectivity factor (Human immunodeficiency virus type 1 group M subtype B (isolate HXB2)) (P69723 whole entry, looked up): as the sequence (P69720 whole entry, looked up) above

## COc1cccc(-c2cc(NC=O)c3ncc(-c4cc(OC)c(OC)c(OC)c4)n3c2)c1
  AC50: 4.25 µM

## Oc1[nH]c(=S)sc1/C=C1\C(c2ccccc2)=Nc2ccccc21
At 6.8 µM (top of the series)
  activity, higher = inhibition: inactive

## CC(C)CN(C(=O)COC(=O)CSc1ccccc1)c1c(N)n(Cc2ccccc2)c(=O)[nH]c1=O
At 19.5 µM (top of the series)
  activity, higher = inhibition: inactive

## COc1ccccc1C1C2=C(COC2=O)Nc2cc3c(cc21)OCO3 (centres undefined)
  AC50: 1.99 µM

## O=C(C1COc2ccccc2O1)N1CCN(Cc2ccc3c(c2)OCO3)CC1 (centres undefined)
At 19.5 µM (top of the series)
  activity, higher = inhibition: inactive

## CN(C)C(=O)c1cc(Br)ccc1Cl
At 19.5 µM (top of the series)
  activity, higher = inhibition: inactive

## Cc1ccc(C(=O)NC(CCc2ccccc2)C(=O)O)cc1 (centres undefined)
At 19.5 µM (top of the series)
  activity, higher = inhibition: inactive

## CCCc1cc(=O)oc2cc(OCc3cc(OC)c(OC)c(OC)c3)c(Cl)cc12
  AC50: 19.1 µM

## COc1ccc(C=C2CS(=O)(=O)CC(=Cc3ccc(OC)cc3)C2=O)cc1
At 19.5 µM (top of the series)
  activity, higher = inhibition: inactive

## Cc1cc(C)c2nc3sc(C(=O)N4CCOCC4)c(N)c3cc2c1
  AC50: 1.85 µM

## COc1ccc(-n2nc(C(=O)NCC(=O)Nc3cccc(Cl)c3)c3ccccc3c2=O)cc1OC
  AC50: 8.05 µM

## CCOC(=O)c1cc(-c2ccccc2)sc1NC(=O)COC(=O)c1cccc(S(N)(=O)=O)c1
  AC50: 16.1 µM

## Cc1ccc2c(c1)N(CC(=O)N1CCCCCC1)C(=O)C(C)O2 (centres undefined)
At 19.5 µM (top of the series)
  activity, higher = inhibition: inactive

## NCCCC[C@H](N[C@@H](CCc1ccccc1)C(=O)O)C(=O)N1CCC[C@H]1C(=O)O
At 19.5 µM (top of the series)
  activity, higher = inhibition: inactive

## COC(=O)c1ccc(Oc2coc3cc(OCc4cnn(-c5ccccc5)c4)ccc3c2=O)cc1
  AC50: 17.2 µM

## Cc1ccc(/C=C2/CNC/C(=C/c3ccc(C)cc3)C2=O)cc1
At 2.1 µM (top of the series)
  activity, higher = inhibition: inactive

## CCCn1c(=O)c(C(=O)Nc2ncccc2O)c(O)c2ccccc21
At 19.5 µM (top of the series)
  activity, higher = inhibition: inactive

## O=C(O)c1ccc(-c2nc(-c3cccc(C(F)(F)F)c3)cs2)cc1
At 19.5 µM (top of the series)
  activity, higher = inhibition: inactive

## CCn1c(SCc2ccc(C(=O)Nc3nccs3)cc2)nnc1-c1ccc(N)cc1
At 19.5 µM (top of the series)
  activity, higher = inhibition: inactive

## CC(C)(C)NC(=O)NC(=O)COc1ccccn1
At 19.5 µM (top of the series)
  activity, higher = inhibition: inactive

## COc1cc2c3nnc(-c4ccc(F)cc4)c-3cn(Cc3ccc(F)cc3)c2cc1OC
At 6.8 µM (top of the series)
  activity, higher = inhibition: inactive

## COc1ccc([C@H]2CC(=O)C=C(c3cc4ccccc4s3)C2)cc1
At 19.5 µM (top of the series)
  activity, higher = inhibition: inactive

## O=S(=O)(Nc1nc2ccccc2nc1NCc1ccco1)c1ccc(Cl)cc1
At 19.5 µM (top of the series)
  activity, higher = inhibition: inactive

## CCCn1c(=N)c(C(=O)NCc2ccc3c(c2)OCO3)cc2c(=O)n3cccc(C)c3nc21
At 19.5 µM (top of the series)
  activity, higher = inhibition: inactive

## CCCCn1c(-c2ccncc2)nc2c1c(=O)[nH]c(=O)n2CC(C)C
At 19.5 µM (top of the series)
  activity, higher = inhibition: inactive

## N#CC(C(=O)NCCc1ccccc1)c1nc2ccccc2nc1N1CCOCC1 (centres undefined)
At 19.5 µM (top of the series)
  activity, higher = inhibition: inactive

## Cc1cc(NC(=O)CSc2nc3c(sc4ccccc43)c(=O)n2CCCN2CCOCC2)n[nH]1
  AC50: 7.05 µM

## C/C=C/c1ccc(OCCNCc2ccccc2)c(OC)c1
At 19.5 µM (top of the series)
  activity, higher = inhibition: inactive

## COC(=O)c1sc(-c2ccc(Cl)cc2)cc1NC(=O)CSCC(=O)O
At 19.5 µM (top of the series)
  activity, higher = inhibition: inactive

## O=C(c1ccc2c(c1)OCO2)N(CC1CCCO1)C1(C(=O)NC2CCCC2)CCCCC1 (centres undefined)
At 19.5 µM (top of the series)
  activity, higher = inhibition: inactive

## O=C(NC1(C(F)(F)F)Oc2ccc(Cl)cc2O1)N1CCC2(CC1)OCCO2 (centres undefined)
  AC50: 7.65 µM

## CCc1ccc(N2C(=O)/C(=C/c3cccs3)N(CC(=O)OC)C2=S)cc1
  AC50: 18.8 µM

## CCN(CCCNC(=O)C1CCC(=O)N1Cc1ccc(C)cc1)c1cccc(C)c1 (centres undefined)
At 19.5 µM (top of the series)
  activity, higher = inhibition: inactive

## COc1cccc(NC(=O)NC2(C(F)(F)F)Oc3ccccc3O2)c1
  AC50: > 19.5 µM (inactive)

## O=C(Nc1ccnc(-c2cccnc2)n1)c1cccs1
At 19.5 µM (top of the series)
  activity, higher = inhibition: inactive

## CCOc1ccccc1NC(=O)Cn1nnc(C(=O)NCc2cccs2)c1N
  AC50: 5.28 µM

## Cc1c(NC(=O)CC(O)(C(F)(F)F)C(F)(F)F)c(=O)n(-c2ccccc2)n1C
At 19.5 µM (top of the series)
  activity, higher = inhibition: inactive

## CCN(CC(=O)Nc1c(F)cccc1F)C(=O)c1cccc(-n2cccc2)c1
At 19.5 µM (top of the series)
  activity, higher = inhibition: inactive

## Cc1ncoc1C(=O)N1CCCC(C(=O)c2ccc(Oc3ccccc3)cc2)C1 (centres undefined)
At 19.5 µM (top of the series)
  activity, higher = inhibition: inactive

## Cc1nc(-c2ccccc2OC(F)(F)F)[nH]c(=O)c1Cl
At 19.5 µM (top of the series)
  activity, higher = inhibition: inactive

## NC(CCc1ccccc1)c1csc(Nc2ccc(C(=O)c3ccccc3)cc2)n1 (centres undefined)
  AC50: 10.2 µM

## COc1cccc(CNc2ccc3c(c2)CCC3)c1
At 19.5 µM (top of the series)
  activity, higher = inhibition: inactive

## Cc1ccc(CNCCCSc2ncccn2)cc1
At 19.5 µM (top of the series)
  activity, higher = inhibition: inactive

## COc1cc(-c2cc(=O)c3c(O)c(OC)c(OC)c(O)c3o2)ccc1O
  AC50: > 19.5 µM (inactive)

## c1ccc(-c2cn3nc(-c4ccccc4)c(-c4ccccc4)nc3n2)cc1
  AC50: 19.2 µM

## CCOC(=O)c1c(C)[nH]c(-c2csc(N)n2)c1C
At 19.5 µM (top of the series)
  activity, higher = inhibition: inactive

## COc1ccc(CN2C3CCC2CC(NC(=O)c2cc(OC)c(OC)c(OC)c2)C3)cc1 (centres undefined)
At 19.5 µM (top of the series)
  activity, higher = inhibition: inactive

## Cc1nnc2ccc(-c3cccc(NS(=O)(=O)c4ccccc4Cl)c3)nn12
  AC50: 14.1 µM

## CCCCOc1cccc2c(=O)n(CC(=O)Nc3ccc4c(c3)OCCO4)ccc12
At 19.5 µM (top of the series)
  activity, higher = inhibition: inactive

## O=C(COC(=O)/C=C/C(=O)OCC(=O)Nc1ccccc1F)Nc1ccccc1F
At 19.5 µM (top of the series)
  activity, higher = inhibition: inactive

## NCCCCCC(=O)Nc1ccncc1
At 19.5 µM (top of the series)
  activity, higher = inhibition: inactive

## CCN(CC)C(=O)c1cccc(NC(=O)C2=COCCO2)c1
At 19.5 µM (top of the series)
  activity, higher = inhibition: inactive

## Cc1cc(C)cc(NC(=O)CCc2nc3sc4c(c3c(=O)[nH]2)CCCC4)c1
  AC50: 14.6 µM

## COc1cc(C(C)=O)ccc1OCC(=O)NCC1(N2CCCCC2)CCCCC1
At 19.5 µM (top of the series)
  activity, higher = inhibition: inactive

## CCN(CC)C1Oc2cc3c(cc2C(c2cc(OC)c(OC)c(OC)c2)C1C)OCO3 (centres undefined)
  AC50: 6.24 µM

## CC(C)CCNC(=O)CCc1nnc(COc2ccccc2)o1
At 19.5 µM (top of the series)
  activity, higher = inhibition: inactive

## CC(C)CC(=O)Nc1ccc(-c2nnn(CC(=O)NCc3ccco3)n2)cc1
At 19.5 µM (top of the series)
  activity, higher = inhibition: inactive

## CC(=O)Nc1ccc(NC(=O)COc2ccccc2C(=O)Nc2cccc(Cl)c2Cl)cc1
  AC50: 5.9 µM

## COc1ccccc1C(=O)COC(=O)C1(C)CC1(Cl)Cl (centres undefined)
At 19.5 µM (top of the series)
  activity, higher = inhibition: inactive

## COc1cccc(NC(=O)c2cc(C(=O)Nc3cccc(OC)c3)n(C)n2)c1
At 19.5 µM (top of the series)
  activity, higher = inhibition: inactive

## Cc1ccc2c(COC(=O)c3ccccc3OC(F)F)cc(=O)oc2c1
  AC50: 12 µM

## Cc1cc(C)c(S(=O)(=O)N2CCN(S(=O)(=O)N3CCOCC3)CC2)c(C)c1
At 19.5 µM (top of the series)
  activity, higher = inhibition: inactive

## COc1ccc(CC(=O)Nc2ccc(-c3noc(-c4cc(OC)c(OC)c(OC)c4)n3)cc2)cc1
  AC50: 13 µM

## COc1ccc(N=C2NC(=O)S/C2=C\c2ccc(N(C)C)cc2)cc1
At 19.5 µM (top of the series)
  activity, higher = inhibition: inactive

## Cc1ccc(Nc2cc(=O)[nH]c(=O)[nH]2)cc1C
At 19.5 µM (top of the series)
  activity, higher = inhibition: inactive

## CC1(C)CC(=O)C2=C(C1)Nc1ccccc1N(C(=O)C1CC1)C2c1ccco1 (centres undefined)
At 19.5 µM (top of the series)
  activity, higher = inhibition: inactive

## Cc1nnc(NC(=O)Cn2nc(C)c3ccccc3c2=O)s1
At 19.5 µM (top of the series)
  activity, higher = inhibition: inactive

## O=C(CN(C(=O)c1csnn1)c1ccc(F)cc1)NCc1ccc2c(c1)OCO2
At 19.5 µM (top of the series)
  activity, higher = inhibition: inactive

## CN1CCc2nc3ccc(F)cc3c(C(N)=O)c2C1
At 19.5 µM (top of the series)
  activity, higher = inhibition: inactive

## CCc1ccc2[nH]c3nc(SCC(=O)NNC(=O)c4ccc(C(C)(C)C)cc4)nnc3c2c1
  AC50: 7.22 µM

## CCc1cc2c(Sc3nc4ccccc4s3)ncnc2s1
At 19.5 µM (top of the series)
  activity, higher = inhibition: inactive

## COc1cc(Nc2nc3ccccc3n3nnnc23)cc(OC)c1OC
At 6.8 µM (top of the series)
  activity, higher = inhibition: inactive

## O=C(NNC(=O)c1cc2ccccc2oc1=O)c1ccccc1
At 19.5 µM (top of the series)
  activity, higher = inhibition: inactive

## CC(=O)Nc1ccc(C2(c3ccc(NC(C)=O)cc3)NC(=O)c3ccccc32)cc1
At 19.5 µM (top of the series)
  activity, higher = inhibition: inactive

## Cc1cc(S(=O)(=O)N2CCOCC2)ccc1OCC(=O)NCCN1CCOCC1
At 19.5 µM (top of the series)
  activity, higher = inhibition: inactive

## CCOC(=O)C1CCCN1C(=O)C1(NC(C)=O)CCCC1 (centres undefined) (Ac-[Ac5c]-[ξP]-OEt)
At 19.5 µM (top of the series)
  activity, higher = inhibition: inactive

## CCc1nnc(NC(=O)c2sc3nc4cc(C)ccc4cc3c2N)s1
At 6.8 µM (top of the series)
  activity, higher = inhibition: inactive

## COC(CNC(=O)C1CCN(C(=O)c2cc3oc(C)cc3n2Cc2c(F)cccc2Cl)CC1)OC
At 19.5 µM (top of the series)
  activity, higher = inhibition: inactive

## CCn1c(CC(=O)Nc2ccccc2)nnc1SCC(=O)Nc1nnc(C)s1
At 19.5 µM (top of the series)
  activity, higher = inhibition: inactive

## CC(C)n1nc(C(=O)Nc2ccc(-n3cnnn3)cc2)c2ccccc2c1=O
At 19.5 µM (top of the series)
  activity, higher = inhibition: inactive

## CCNC(=O)[C@H]1O[C@@H](n2cnc3c(N)nc(NCCc4ccc(CCC(=O)O)cc4)nc32)[C@H](O)[C@@H]1O
At 19.5 µM (top of the series)
  activity, higher = inhibition: inactive

## COc1ccc(-c2nc3cnccn3c2NC2CCCCC2)cc1-c1cccc(Cl)c1
  AC50: 14.5 µM

## Cc1ccc(C(C)C)c(OCC#CCN2CCOCC2)c1
At 19.5 µM (top of the series)
  activity, higher = inhibition: inactive

## Cn1nnnc1Sc1ncnc2scc(-c3ccc(Cl)cc3)c12
  AC50: 3.75 µM
